From BindingDB's records for doi:10.1021/jm0701019 (Abbott Laboratories, 2007)

Molecular target: T1, RAC-alpha serine/threonine-protein kinase [139-480,S378A,S381A,T450D,S473D] (Homo sapiens, UniProt P31749, S378A/S381A/S473D/T450D)
T1 construct: 139-480
Assay: Akt Kinase Assay
Protocol: The kinase assay uses His-Akt1 and a biotinylated peptide as substrate. The biotinylated peptides were immobilized on streptavidin-coated FLASH plates. After reaction, the 33P-phosphopeptide captured on the FLASH plates was measured with a TopCount Packard Instruments […] (Packard Instruments, Boston, MA).

T1 sequence (P31749 139-480 S378A/S381A/T450D/S473D): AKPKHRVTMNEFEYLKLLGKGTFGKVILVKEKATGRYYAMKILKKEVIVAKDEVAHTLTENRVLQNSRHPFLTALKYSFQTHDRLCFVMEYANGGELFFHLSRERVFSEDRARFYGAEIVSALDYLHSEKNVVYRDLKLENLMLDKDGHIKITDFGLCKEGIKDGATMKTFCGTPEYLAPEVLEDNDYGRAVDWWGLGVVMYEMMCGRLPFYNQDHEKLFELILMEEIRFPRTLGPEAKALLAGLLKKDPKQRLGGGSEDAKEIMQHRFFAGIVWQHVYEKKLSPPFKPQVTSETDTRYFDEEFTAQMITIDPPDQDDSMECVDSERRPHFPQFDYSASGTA

Row | Structure (SMILES) | IC50 [nM] | IC50 (pH 7.5, 22 °C) [nM]
1 | Cc1n[nH]c2cnc(-c3cncc(OC[C@@H](N)Cc4cccc(C(F)(F)F)c4)c3)cc12 [3-[(2S)-2-amino-3-[3-(trifluoromethyl)phenyl]propoxy]-5-{3-methyl-1H-pyrazolo[3,4-c]pyridin-5-yl}pyridine] | 0.6 | –
2 | Cc1n[nH]c2ccc(-c3cncc(OC[C@@H](N)Cc4cccc(OCCN5CCOCC5)c4)c3)cc12 [4-(2-{3-[(2S)-2-amino-3-{[5-(3-methyl-1H-indazol-5-yl)pyridin-3-yl]oxy}propyl]phenoxy}ethyl)morpholine] | 751 | –
3 | N[C@H](COc1cncc(-c2ccc3c(c2)CC(=O)N3)c1)Cc1ccccc1 [5-(5-{[(2S)-2-amino-3-phenylpropyl]oxy}pyridin-3-yl)-1,3-dihydro-2H-indol-2-one] | – | 2650
4 | Cc1n[nH]c2ccc(-c3cncc(OC[C@@H](N)Cc4ccc5c(c4)OC(F)(F)C(F)(F)O5)c3)cc12 [5-{5-[(2S)-2-amino-3-(2,2,3,3-tetrafluoro-2,3-dihydro-1,4-benzodioxin-6-yl)propoxy]pyridin-3-yl}-3-methyl-1H-indazole] | 13 | –
5 | Cc1n[nH]c2ccc(-c3cncc(OC[C@@H](N)Cc4cccc5c4OC(F)(F)O5)c3)cc12 [5-{5-[(2S)-2-amino-3-(2,2-difluoro-2H-1,3-benzodioxol-4-yl)propoxy]pyridin-3-yl}-3-methyl-1H-indazole] | 14 | –
6 | Cc1n[nH]c2ccc(-c3cncc(OC[C@@H](N)Cc4ccc(F)c(F)c4F)c3)cc12 [5-{5-[(2S)-2-amino-3-(2,3,4-trifluorophenyl)propoxy]pyridin-3-yl}-3-methyl-1H-indazole] | – | 12
7 | Cc1n[nH]c2ccc(-c3cncc(OC[C@@H](N)Cc4cccc(Cl)c4Cl)c3)cc12 [5-{5-[(2S)-2-amino-3-(2,3-dichlorophenyl)propoxy]pyridin-3-yl}-3-methyl-1H-indazole] | 5.6 | –
8 | Cc1n[nH]c2ccc(-c3cncc(OC[C@@H](N)Cc4cccc(F)c4F)c3)cc12 [5-{5-[(2S)-2-amino-3-(2,3-difluorophenyl)propoxy]pyridin-3-yl}-3-methyl-1H-indazole] | – | 8.5
9 | Cc1n[nH]c2ccc(-c3cncc(OC[C@@H](N)Cc4c(F)cccc4F)c3)cc12 [5-{5-[(2S)-2-amino-3-(2,6-difluorophenyl)propoxy]pyridin-3-yl}-3-methyl-1H-indazole] | – | 65.5
10 | Cc1n[nH]c2ccc(-c3cncc(OC[C@@H](N)Cc4ccccc4Cl)c3)cc12 [5-{5-[(2S)-2-amino-3-(2-chlorophenyl)propoxy]pyridin-3-yl}-3-methyl-1H-indazole] | 29 | –
11 | Cc1n[nH]c2ccc(-c3cncc(OC[C@@H](N)Cc4ccc5c(c4)OCO5)c3)cc12 [5-{5-[(2S)-2-amino-3-(2H-1,3-benzodioxol-5-yl)propoxy]pyridin-3-yl}-3-methyl-1H-indazole] | 42 | –
12 | Cc1ccc(C[C@H](N)COc2cncc(-c3ccc4[nH]nc(C)c4c3)c2)cc1F [5-{5-[(2S)-2-amino-3-(3-fluoro-4-methylphenyl)propoxy]pyridin-3-yl}-3-methyl-1H-indazole] | 2.4 | –
13 | Cc1n[nH]c2ccc(-c3cncc(OC[C@@H](N)Cc4cccc(F)c4)c3)cc12 [5-{5-[(2S)-2-amino-3-(3-fluorophenyl)propoxy]pyridin-3-yl}-3-methyl-1H-indazole] | – | 8.4
14 | Cc1n[nH]c2ccc(-c3cncc(OC[C@@H](N)Cc4cccc(I)c4)c3)cc12 [5-{5-[(2S)-2-amino-3-(3-iodophenyl)propoxy]pyridin-3-yl}-3-methyl-1H-indazole] | 0.9 | –
15 | Cc1n[nH]c2ccc(-c3cncc(OC[C@@H](N)Cc4cccc(-c5ccccc5)c4)c3)cc12 [5-{5-[(2S)-2-amino-3-(3-phenylphenyl)propoxy]pyridin-3-yl}-3-methyl-1H-indazole] | 126 | –
16 | Cc1n[nH]c2ccc(-c3cncc(OC[C@@H](N)Cc4ccc(Br)cc4F)c3)cc12 [5-{5-[(2S)-2-amino-3-(4-bromo-2-fluorophenyl)propoxy]pyridin-3-yl}-3-methyl-1H-indazole] | 10 | –
17 | Cc1n[nH]c2ccc(-c3cncc(OC[C@@H](N)Cc4ccc(Br)c(F)c4)c3)cc12 [5-{5-[(2S)-2-amino-3-(4-bromo-3-fluorophenyl)propoxy]pyridin-3-yl}-3-methyl-1H-indazole] | 1.3 | –
18 | Cc1cc(C[C@H](N)COc2cncc(-c3ccc4[nH]nc(C)c4c3)c2)ccc1Br [5-{5-[(2S)-2-amino-3-(4-bromo-3-methylphenyl)propoxy]pyridin-3-yl}-3-methyl-1H-indazole] | 2.5 | –
19 | Cc1n[nH]c2ccc(-c3cncc(OC[C@@H](N)Cc4ccc(Cl)c(F)c4)c3)cc12 [5-{5-[(2S)-2-amino-3-(4-chloro-3-fluorophenyl)propoxy]pyridin-3-yl}-3-methyl-1H-indazole] | 3.6 | –
20 | Cc1cc(F)ccc1C[C@H](N)COc1cncc(-c2ccc3[nH]nc(C)c3c2)c1 [5-{5-[(2S)-2-amino-3-(4-fluoro-2-methylphenyl)propoxy]pyridin-3-yl}-3-methyl-1H-indazole] | 6 | –
21 | Cc1ccc(F)cc1C[C@H](N)COc1cncc(-c2ccc3[nH]nc(C)c3c2)c1 [5-{5-[(2S)-2-amino-3-(5-fluoro-2-methylphenyl)propoxy]pyridin-3-yl}-3-methyl-1H-indazole] | 3.9 | –
22 | Cc1n[nH]c2ccc(-c3cncc(OC[C@@H](N)Cc4ccccc4OC(F)(F)F)c3)cc12 [5-{5-[(2S)-2-amino-3-[2-(trifluoromethoxy)phenyl]propoxy]pyridin-3-yl}-3-methyl-1H-indazole] | 15.3 | –
23 | Cc1n[nH]c2ccc(-c3cncc(OC[C@@H](N)Cc4ccc(C(F)(F)F)cc4F)c3)cc12 [5-{5-[(2S)-2-amino-3-[2-fluoro-4-(trifluoromethyl)phenyl]propoxy]pyridin-3-yl}-3-methyl-1H-indazole] | 12.1 | –
24 | Cc1n[nH]c2ccc(-c3cncc(OC[C@@H](N)Cc4cc(C(F)(F)F)ccc4F)c3)cc12 [5-{5-[(2S)-2-amino-3-[2-fluoro-5-(trifluoromethyl)phenyl]propoxy]pyridin-3-yl}-3-methyl-1H-indazole] | 1.2 | –
25 | Cc1n[nH]c2ccc(-c3cncc(OC[C@@H](N)Cc4cc(C(F)(F)F)cc(C(F)(F)F)c4)c3)cc12 [5-{5-[(2S)-2-amino-3-[3,5-bis(trifluoromethyl)phenyl]propoxy]pyridin-3-yl}-3-methyl-1H-indazole] | 57 | –
26 | Cc1n[nH]c2ccc(-c3cncc(OC[C@@H](N)Cc4cccc(OCCN)c4)c3)cc12 [5-{5-[(2S)-2-amino-3-[3-(2-aminoethoxy)phenyl]propoxy]pyridin-3-yl}-3-methyl-1H-indazole] | 47 | –
27 | Cc1n[nH]c2ccc(-c3cncc(OC[C@@H](N)Cc4cccc(OCC5CCNCC5)c4)c3)cc12 [5-{5-[(2S)-2-amino-3-[3-(piperidin-4-ylmethoxy)phenyl]propoxy]pyridin-3-yl}-3-methyl-1H-indazole] | 6.8 | –
28 | Cc1n[nH]c2ccc(-c3cncc(OC[C@@H](N)Cc4ccc(C(F)(F)F)c(F)c4)c3)cc12 [5-{5-[(2S)-2-amino-3-[3-fluoro-4-(trifluoromethyl)phenyl]propoxy]pyridin-3-yl}-3-methyl-1H-indazole] | 3.1 | –
29 | Cc1n[nH]c2ccc(-c3cncc(OC[C@@H](N)Cc4ccc(F)c(C(F)(F)F)c4)c3)cc12 [5-{5-[(2S)-2-amino-3-[4-fluoro-3-(trifluoromethyl)phenyl]propoxy]pyridin-3-yl}-3-methyl-1H-indazole] | 1.8 | –
